# Where two headings read alike, the source gives them in different places.
# Target: soluble guanylate cyclase (sGC) (Homo sapiens (Human), UniProt Q02108+Q02153)
# Assay: sGC-HEK-cGMP assay with SNP incubation, LC/MS detection (Example 2A)
# Type: cell-based
# Settings: HEK293 cells, 10 μM SNP, LC/MS detection; for Emax: 100% = BAY 41-2272 at 10 μM, read-out: HEK assay Emax - unconstrained (%)
# Method: Human embryonic kidney cells (HEK293), endogenously expressing soluble guanylate cyclase (sGC), were used to evaluate the activity of test compounds. Compounds stimulating the sGC receptor should cause an increase in the intracellular concentration of cGMP. HEK 293 cells were seeded in Dulbecco's Modification of Eagle's Medium supplemented with fetal bovine serum (10% final) and L-glutamine (2 mM final) in a 200 L volume at a density of 1×10^5 cells/well in a poly-D-lysine coated 96 well flat bottom plate and grown overnight at 37° C. Medium was aspirated and cells were washed with 1× Hank's Buffered Saline Salt Solution (200 μL). Cells were then incubated for 15 minutes at 37° C. with 200 μL of a 0.5 mM 3-isobutyl-1-methylxanthine (IBMX) solution. Test article and sodium nitroprusside solutions (x μM concentration for test article solution and 10 μM concentration for SNP solution; wherein x is one of the following concentrations: 30 μM, 10 μM, 3 μM, 1 μM, 0.3 μM, 0.1 μM, 0.03 μM, 0.01 μM, 0.003 μM, 0.001 μM, 0.0003 μM or 0.0001 μM) were then added to the assay mixture (2 μL each) and the resulting mixture incubated at 37° C. for 10 minutes. After the 10 minute incubation, the assay mixture was aspirated and 0.1M HCl (200 μL) was added to the cells. The plate was incubated at 4° C. for 30 minutes in the 0.1M HCl to stop the reaction and lyse the cells. The plates were then centrifuged at 1,200 g for 5 minutes at room temperature. Supernatants were collected and transferred to a new flat bottom 96 well plate for analysis by HPLC-MS. Vehicle controls were carried out using DMSO (1%) solutions. A known sGC stimulator, BAY 41-2272, was used as the positive control. Samples were diluted with an equal volume of 1 M Ammonium Acetate (pH 7) to neutralize samples for better chromatography. A 2× cGMP standard solution was prepared in 0.1 M HCl and then diluted with an equal volume of 1 M Ammonium Acetate, with the following final concentrations in nM: 1024, 512, 256, 128, 64, 32, 16, 8, 4, 2, 1. cGMP concentrations in the test plates were determined from each sample using the LC/MS conditions shown in Table 2 below and the calculated cGMP standard curve. EC50 values were calculated from concentration-response curves generated with GraphPad Prism Software. Data were normalized to a high control using the following equation: 100*(Sample−Low Control)/(High Control−Low Control), where the low control is the average of 6 samples treated with 1% DMSO, and the high control is the average of 8-12 samples treated with 10 uM BAY 41-2272. Data were fit using a non-linear regression, sigmoidal dose response, 3 parameter fits.
# [1] = top of curve not fitted to 100%, read-out: HEK assay EC50 - unconstrained
# [2] = top of curve fitted to 100%, read-out: HEK assay EC50 - constrained
# Chain of soluble guanylate cyclase (sGC) (Q02153 whole entry): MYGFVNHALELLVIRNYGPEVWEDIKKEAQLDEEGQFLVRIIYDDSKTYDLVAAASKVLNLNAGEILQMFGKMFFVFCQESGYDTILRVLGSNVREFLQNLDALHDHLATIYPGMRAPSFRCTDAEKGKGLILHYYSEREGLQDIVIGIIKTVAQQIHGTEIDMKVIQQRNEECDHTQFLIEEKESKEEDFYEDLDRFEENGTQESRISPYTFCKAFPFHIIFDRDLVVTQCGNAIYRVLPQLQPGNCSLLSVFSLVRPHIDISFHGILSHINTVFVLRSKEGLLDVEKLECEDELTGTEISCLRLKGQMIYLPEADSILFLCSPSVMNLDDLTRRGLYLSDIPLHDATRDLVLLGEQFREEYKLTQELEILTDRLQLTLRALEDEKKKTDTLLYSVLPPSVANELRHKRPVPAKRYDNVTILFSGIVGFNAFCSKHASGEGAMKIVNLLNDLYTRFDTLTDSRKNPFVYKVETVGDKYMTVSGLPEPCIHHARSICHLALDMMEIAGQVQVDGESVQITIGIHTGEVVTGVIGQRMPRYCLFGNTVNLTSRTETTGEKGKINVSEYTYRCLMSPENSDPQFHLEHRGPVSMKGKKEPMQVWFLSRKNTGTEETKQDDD
# Chain of soluble guanylate cyclase (sGC) (Q02108 whole entry): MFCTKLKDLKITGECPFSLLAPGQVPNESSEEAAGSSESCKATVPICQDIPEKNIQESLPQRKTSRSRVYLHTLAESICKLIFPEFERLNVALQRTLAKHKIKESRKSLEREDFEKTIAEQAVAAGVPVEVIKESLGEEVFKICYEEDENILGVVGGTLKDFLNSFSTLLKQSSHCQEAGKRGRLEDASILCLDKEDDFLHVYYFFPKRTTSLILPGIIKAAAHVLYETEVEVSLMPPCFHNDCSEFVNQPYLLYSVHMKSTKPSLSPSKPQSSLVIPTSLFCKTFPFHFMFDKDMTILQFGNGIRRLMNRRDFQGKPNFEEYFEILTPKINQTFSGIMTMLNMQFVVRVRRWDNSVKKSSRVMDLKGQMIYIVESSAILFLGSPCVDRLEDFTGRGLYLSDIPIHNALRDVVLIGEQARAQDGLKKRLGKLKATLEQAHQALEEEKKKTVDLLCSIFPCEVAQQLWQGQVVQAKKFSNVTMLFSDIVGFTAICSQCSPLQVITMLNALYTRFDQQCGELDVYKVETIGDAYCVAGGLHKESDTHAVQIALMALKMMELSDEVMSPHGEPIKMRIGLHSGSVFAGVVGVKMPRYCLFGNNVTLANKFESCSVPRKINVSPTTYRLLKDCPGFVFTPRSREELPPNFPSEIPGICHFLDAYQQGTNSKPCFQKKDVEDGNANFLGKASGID
Structure (SMILES),Emax [%],EC50 [1] [nM],EC50 [2] [nM]
Fc1ccccc1Cn1nc(-c2ncc(F)c(N3CCC(c4nnn[nH]4)CC3)n2)cc1-c1ccon1 [Compound I-145],80 to 100,1000 to 5000,–
O=C(O)C1CCCN1c1nc(-c2cc(-c3ccon3)n(Cc3ccccc3F)n2)ncc1F (centres unmarked) [Compound I-41],60 to 80,–,–
O=C(O)CN(Cc1ccccc1)c1nc(-c2cc(-c3ccon3)n(Cc3ccccc3F)n2)ncc1F [Compound I-168],60 to 80,100 to 500,–
Fc1ccccc1Cn1nc(-c2ncc(F)c(NCc3nn[nH]n3)n2)cc1-c1ccon1 [Compound I-146],80 to 100,100 to 500,–
O=C(O)[C@@H](Cc1ccc(O)cc1)Nc1nc(-c2cc(-c3ccon3)n(Cc3ccccc3F)n2)ncc1F [Compound I-165],–,–,> 10000
O=C(O)C1Cc2ccccc2CN1c1nc(-c2cc(-c3ccon3)n(Cc3ccccc3F)n2)ncc1F (centres unmarked) [Compound I-119],40 to 60,100 to 500,–
O=C(O)[C@H](Nc1nc(-c2cc(-c3ccon3)n(Cc3ccccc3F)n2)ncc1F)c1ccccc1 [Compound I-118],80 to 100,1000 to 5000,–
O=C(O)C1CN(c2nc(-c3cc(-c4ccon4)n(Cc4ccccc4F)n3)ncc2F)CCO1 (centres unmarked) [Compound I-83],–,–,> 10000
O=S1(=O)CCN(C2CN(c3nc(-c4cc(-c5ccon5)n(Cc5ccccc5F)n4)ncc3F)C2)CC1 [Compound I-72],60 to 80,100 to 500,–
Fc1ccccc1Cn1nc(-c2ncc(F)c(-n3cccn3)n2)cc1-c1ccon1 [Compound I-74],40 to 60,1000 to 5000,–
O=C(O)C1c2ccccc2CCN1c1nc(-c2cc(-c3ccon3)n(Cc3ccccc3F)n2)ncc1F (centres unmarked) [Compound I-97],60 to 80,1 to 100,–
CC(C)(C)OC(=O)N1CCC2(CCN(c3nc(-c4cc(-c5ccon5)n(Cc5ccccc5F)n4)ncc3F)C2)C1 (centres unmarked) [Compound I-45],40 to 60,1000 to 5000,–
CC(C)[C@H](CNc1nc(-c2cc(-c3ccon3)n(Cc3ccccc3F)n2)ncc1F)C(=O)O [Compound I-171],60 to 80,1 to 100,–
OC[C@@H]1CCCN1c1nc(-c2cc(-c3ccon3)n(Cc3ccccc3F)n2)ncc1F [Compound I-13],60 to 80,100 to 500,–
CC(C)(C)OC(=O)N1CCC(Nc2nc(-c3cc(-c4ccon4)n(Cc4ccccc4F)n3)ncc2F)CC1 [Compound I-12],100 to 120,1000 to 5000,–

# Results, then the molecule that gave them:
Emax [%],EC50 [1] [nM],EC50 [2] [nM],Structure (SMILES)
100 to 120,100 to 500,–,CC(C)CC(Nc1nc(-c2cc(-c3ccon3)n(Cc3ccccc3F)n2)ncc1F)C(=O)NS(C)(=O)=O (centres unmarked) [Compound I-259]
40 to 60,100 to 500,–,Fc1ccccc1Cn1nc(-c2ncc(F)c(Nc3nnn[nH]3)n2)cc1-c1ccon1 [Compound I-276]
100 to 120,100 to 500,–,CCOC(=O)CN(CC1CC1)c1nc(-c2cc(-c3ccon3)n(Cc3ccccc3F)n2)ncc1F [Compound I-201]
60 to 80,100 to 500,–,CCC1(C(=O)O)CCN(c2nc(-c3cc(-c4ccon4)n(Cc4ccccc4F)n3)ncc2F)CC1 [Compound I-189]
40 to 60,1000 to 5000,–,CN(CC(=O)O)c1nc(-c2cc(-c3ccon3)n(Cc3ccccc3F)n2)ncc1F [Compound I-176]
60 to 80,1000 to 5000,–,Fc1ccccc1Cn1nc(-c2ncc(F)c(N3CCCN3)n2)cc1-c1ccon1 [Compound I-193]
80 to 100,100 to 500,–,CC(C)[C@@H](CC(=O)O)N(C)c1nc(-c2cc(-c3ccon3)n(Cc3ccccc3F)n2)ncc1F [Compound I-202]
80 to 100,1 to 100,–,Oc1ccc(CNc2nc(-c3cc(-c4ccon4)n(Cc4ccccc4F)n3)ncc2F)cc1 [Compound I-286]
60 to 80,100 to 500,–,O=C(O)C1(C2CCCCC2)CCN(c2nc(-c3cc(-c4ccon4)n(Cc4ccccc4F)n3)ncc2F)CC1 [Compound I-290]
100 to 120,100 to 500,–,O=C(O)c1ccc(CNc2nc(-c3cc(-c4ccon4)n(Cc4ccccc4F)n3)ncc2F)cc1 [Compound I-280]
